From ChEMBL document CHEMBL5150072, “Discovery and Crystallographic Studies of Nonpeptidic Piperazine Derivatives as Covalent SARS-CoV-2 Main Protease Inhibitors” (J Med Chem, 2022) come the findings set out here.

Activity calls are given as the source filed them. The rule behind the calls is not given here.

Data set [1] relates to SARS-CoV-2. The data set can be described thus: Antiviral activity against SARS-CoV-2 infected in Vero E6 cells preincubated for 1 hr followed by methylcellulose addition and measured after 25 to 26 hrs by EliSpot reader based analysis. The format is functional, organism-based. The conditions noted are these: Severe acute respiratory syndrome coronavirus 2, Vero C1008.
Data set [2] is described as follows: Cytotoxicity against african green monkey Vero E6 cells assessed as reduction in cell viability after 26 hrs by MTS assay. Conditions: chlorocebus sabaeus. The format is toxicity, cell-based, Vero C1008. Background: Tetrazolium dyes change colour on reduction, which living cells bring about.
Data set [3] concerns the target T1, Replicase polyprotein 1ab (Severe acute respiratory syndrome coronavirus 2, UniProt P0DTD1). The data set can be described thus: Inhibition of SARS-CoV-2 main protease using MCA-AVLQSGFR-Lys(Dnp)-Lys-NH2 as substrate preincubated for 30 mins followed by substrate addition and measured every 10 sec for 10 mins by FRET assay.
In data set [4] the test system is SARS-CoV-2. The data set is described as follows: Antiviral activity against SARS-CoV-2 infected in Vero E6 cells. The conditions noted are these: Severe acute respiratory syndrome coronavirus 2, Vero C1008. The format is functional, organism-based.
The subject of data set [5] is SARS-CoV-2. The data set is described as follows: Antiviral activity against SARS-CoV-2 infected in Vero E6 cells assessed as reduction in virus induced cytopathic effect incubated for 3 days. Conditions: Severe acute respiratory syndrome coronavirus 2, Vero C1008, 72 h. Format: functional, organism-based. A general note: Damage to the host cells serves as the signal in cytopathic effect assays.

For data set [6], the system named is SARS-CoV-2. The data set can be described thus: Antiviral activity against SARS-CoV-2 infected in VeroE6 cells measured after 24 hrs post infection by plaque assay. The conditions noted are these: Severe acute respiratory syndrome coronavirus 2, Vero C1008, 24 h. Format: functional, organism-based.
Data set [7] has as its target T1, Replicase polyprotein 1ab. The data set is described as follows: Inhibition of SARS-CoV-2 main protease.
A short description of data set [8]: Cytotoxicity against african green monkey Vero E6 cells. Format: toxicity, cell-based, Vero C1008. Conditions: chlorocebus sabaeus.
In a further data set the target is Cathepsin B (Homo sapiens, UniProt P07858). The data set is described as follows: Inhibition of human cathepsin B using Z-Leu-Arg-AMC as substrate by […] assay. The format is toxicity.
The next data set has as its target T2, Cathepsin F (Homo sapiens, UniProt Q9UBX1).
T2 sequence (Q9UBX1 whole entry): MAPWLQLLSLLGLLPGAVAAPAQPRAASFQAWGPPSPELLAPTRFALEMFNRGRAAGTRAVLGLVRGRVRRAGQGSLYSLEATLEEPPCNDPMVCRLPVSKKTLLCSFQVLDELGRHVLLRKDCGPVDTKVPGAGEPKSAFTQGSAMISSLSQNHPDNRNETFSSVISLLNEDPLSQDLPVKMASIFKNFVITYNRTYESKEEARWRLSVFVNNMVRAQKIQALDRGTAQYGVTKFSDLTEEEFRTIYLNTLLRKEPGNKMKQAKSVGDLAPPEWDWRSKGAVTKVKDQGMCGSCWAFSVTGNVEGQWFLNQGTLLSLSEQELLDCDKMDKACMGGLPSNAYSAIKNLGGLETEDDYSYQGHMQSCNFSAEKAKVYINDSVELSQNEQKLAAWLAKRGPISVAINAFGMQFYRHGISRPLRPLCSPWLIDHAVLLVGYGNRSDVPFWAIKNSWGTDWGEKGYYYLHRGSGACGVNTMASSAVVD
The data set can be described thus: Inhibition of human cathepsin F using Z-Phe-Arg-AMC as substrate by […] assay. The format is toxicity.

A further data set has as its target T3, Caspase-3 (Homo sapiens, UniProt P42574).
T3 sequence (P42574 whole entry): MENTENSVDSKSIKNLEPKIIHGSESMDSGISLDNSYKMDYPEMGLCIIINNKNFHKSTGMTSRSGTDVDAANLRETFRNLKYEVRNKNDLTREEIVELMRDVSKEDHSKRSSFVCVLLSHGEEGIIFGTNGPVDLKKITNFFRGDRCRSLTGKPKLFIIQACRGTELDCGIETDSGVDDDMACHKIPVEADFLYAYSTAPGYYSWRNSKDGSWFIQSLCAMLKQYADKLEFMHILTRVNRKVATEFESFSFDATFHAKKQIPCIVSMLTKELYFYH
The data set can be described thus: Inhibition of human caspase 3 using Ac-Asp-Glu-Val-Asp-pNA as substrate by […] assay. Format: toxicity.

Data set [9] has as its target Replicase polyprotein 1ab (Severe acute respiratory syndrome coronavirus 2) (UniProt P0DTD1). The data set can be described thus: Covalent inhibition of SARS-CoV-2 main protease assessed as protein-compound adduct formation incubated for 30 mins by MALDI-TOF analysis.
The target in the next data set is Procathepsin L (Homo sapiens, UniProt P07711). The data set is described as follows: Inhibition of human cathepsin L using Z-Leu-Arg-AMC as substrate by […] assay. The format is toxicity.
Data set [10] deals with Replicase polyprotein 1ab (Severe acute respiratory syndrome coronavirus 2) (UniProt P0DTD1). The data set is described as follows: Potency index, ratio of IC50 for MCULE-5948770040 to IC50 for test compound for inhibition of SARS-COV-2 main protease.
For data set [11] the target is unchanged. The data set is described as follows: Irreversible inhibition of SARS-CoV-2 main protease assessed as ratio of Kinact/Ki incubated for 60 mins by MS analysis.
Another data set addresses T4, Cathepsin K (Homo sapiens, UniProt P43235).
T4 sequence (P43235 whole entry): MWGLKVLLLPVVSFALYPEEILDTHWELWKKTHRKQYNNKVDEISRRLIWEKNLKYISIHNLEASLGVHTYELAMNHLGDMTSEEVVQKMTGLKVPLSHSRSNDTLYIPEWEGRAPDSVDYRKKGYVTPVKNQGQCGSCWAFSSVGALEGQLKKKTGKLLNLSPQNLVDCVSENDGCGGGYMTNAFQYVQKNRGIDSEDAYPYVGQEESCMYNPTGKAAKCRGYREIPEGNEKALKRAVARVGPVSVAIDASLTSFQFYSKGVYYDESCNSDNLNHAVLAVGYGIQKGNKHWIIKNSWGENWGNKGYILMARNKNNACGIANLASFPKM
The data set can be described thus: Inhibition of human cathepsin K using Ac-LR-AFC as substrate by […] assay. The format is toxicity.

Data set [12] has as its target T1, Replicase polyprotein 1ab. The data set can be described thus: Inhibition of SARS-CoV-2 main protease incubated for 30 mins by FRET based assay.

Sequence of Procathepsin L (P07711 whole entry): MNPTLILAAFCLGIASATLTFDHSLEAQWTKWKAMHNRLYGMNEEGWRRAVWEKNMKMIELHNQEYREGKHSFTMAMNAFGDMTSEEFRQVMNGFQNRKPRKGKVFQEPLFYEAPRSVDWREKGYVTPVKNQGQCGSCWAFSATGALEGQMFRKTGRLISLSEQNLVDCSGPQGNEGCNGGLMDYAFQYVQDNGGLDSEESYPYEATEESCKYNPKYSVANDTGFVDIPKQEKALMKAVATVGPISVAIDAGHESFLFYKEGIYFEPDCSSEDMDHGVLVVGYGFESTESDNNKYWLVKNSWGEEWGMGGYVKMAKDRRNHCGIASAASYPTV

Take `CCC(CC)COC(=O)[C@H](C)N[P@](=O)(OC[C@H]1O[C@@](C#N)(c2ccc3c(N)ncnn23)[C@H](O)[C@@H]1O)Oc1ccccc1`: the EC50 in the data set with SARS-CoV-2 [1] turned out to be 2.27 µM. Moreover, the CC50 at 26 h in data set [2] is greater than 100 µM.
As for `O=C(NCc1cccs1)[C@@H]1CN(C(=O)C(F)(F)S(=O)(=O)F)CCN1c1ccc(Cl)c(Cl)c1`, the concentration for a half-maximal effect (EC50) in the data set on SARS-CoV-2 [1] was determined as 183 µM. Also, the 50% cytotoxic concentration (CC50) at 26 h in data set [2] is greater than 100 µM. For the same molecule, 1.6 µM corresponded to half-maximal inhibition in [3] (IC50).
As for `CC(C)(C)NC(=O)C(c1cccnc1)N(C(=O)c1ccco1)c1ccc(C(C)(C)C)cc1` (stereo unspecified), the EC50 in the data set with SARS-CoV-2 [4] was greater than 20 µM.
As for `COc1cccc2[nH]c(C(=O)N[C@@H](CC(C)C)C(=O)N[C@@H](C[C@@H]3CCNC3=O)C(=O)CO)cc12` [PF-00835231], the EC50 in the data set on SARS-CoV-2 [5] was determined as 0.23 µM.
With `CC(C)(C)[C@H](NC(=O)C(F)(F)F)C(=O)N1C[C@H]2[C@@H]([C@H]1C(=O)N[C@H](C#N)C[C@@H]1CCNC1=O)C2(C)C`, the cytotoxic concentration (CC50) at 26 h in data set [2] was greater than 100 µM.
In the data set with SARS-CoV-2 [6], `O=C[C@H](C[C@@H]1CCNC1=O)NC(=O)[C@H](CC1CCCCC1)NC(=O)c1cc2ccccc2[nH]1` yielded an EC50 of 0.42 µM.
For `[2H][C@](C(=O)N[C@@H](C)c1ccc(F)cc1)(c1cccnc1)N(C(=O)C(C)=O)c1ccc2c(c1)oc1ccccc12`, in the data set with SARS-CoV-2 [4], the half-maximal effective concentration (EC50) is 0.9 µM. The molecule further gave an IC50 in [7] of 0.008 µM.
`O=C(NCc1cccs1)[C@@H]1CN(C(=O)c2cccnc2)CCN1c1ccc(Cl)c(Cl)c1` came in with an EC50 in the data set on SARS-CoV-2 [1] of 0.4 µM. The CC50 at 26 h in data set [2] was greater than 100 µM. For the same molecule, in [3], half-maximal inhibition (IC50) was put at 0.4 µM.
Take `O=c1c2ccccc2[se]n1-c1ccccc1` [EBSELEN]: in data set [8], the CC50 was greater than 20 µM.
For `O=C(NCc1cccs1)[C@@H]1CN(C(=O)CCl)CCN1c1ccc(Cl)c(Cl)c1`, in the data set with SARS-CoV-2 [1], the EC50 was found to be 2.64 µM. Moreover, the IC50 at Cathepsin B is greater than 30 µM; against Cathepsin F, greater than 30 µM; against Caspase-3, greater than 30 µM; at Procathepsin L, greater than 30 µM; in data set [3], 0.18 µM; against Cathepsin K, greater than 30 µM. Besides, the inhibition entry in data set [9] is “Active”. Moreover, the CC50 at 26 h in data set [2] stood at 12.5 µM. Besides, in data set [10], the Ratio IC50 was 28. Also, the Ratio in data set [11] came to 21500 M⁻¹ s⁻¹.
Molecule `C[C@H](NC(=O)[C@@H](c1cccnc1)N(C(=O)C(Cl)Cl)c1ccc(-c2ccccc2)cc1)c1ccccc1` returned a half-inhibitory concentration (IC50) in [12] of 0.67 µM. The same molecule had an EC50 in the data set on SARS-CoV-2 [4] of 0.67 µM. Besides, the midpoint of cytotoxicity in data set [8], the CC50, lay at 33.1 µM.
Molecule `O=C(NCc1cccs1)[C@@H]1CN(C(=O)CBr)CCN1c1ccc(Cl)c(Cl)c1` had a concentration giving a half-maximal response (EC50) with SARS-CoV-2 [1] of 4.24 µM. Moreover, the 50% cytotoxic concentration (CC50) at 26 h in data set [2] was determined as 6.5 µM. Moreover, the Ratio IC50 in data set [10] stood at 16. The molecule also returned a half-maximal inhibitory concentration (IC50) in [3] of 0.31 µM.
In turn, `C#CC(=O)N1CCN(c2ccc(Cl)c(Cl)c2)[C@H](C(=O)NCc2cccs2)C1` registered a half-maximal effective concentration (EC50) with SARS-CoV-2 [1] of 1.37 µM. Besides, the CC50 at 26 h in data set [2] turned out to be 11.9 µM. The molecule further returned an IC50 in data set [3] of 2.8 µM.

What is called EC50 is the midpoint of the concentration-response curve. For orientation: CC50 means the concentration giving 50% cytotoxicity. One may read the IC50 as the midpoint of a concentration-inhibition curve.
